pIC50: −log10 of the molar value. Where a name gives a salt, the structure may show the parent alone. Some results are limits rather than exact numbers.

The target of the assay is full-length human HDAC11 (Homo sapiens (Human), UniProt Q96DB2). Nature of the assay: Probe binding HDAC11 time resolved fluorescence (TRF) assay. Conditions: Table 2, read-out: HDAC11 IC50 Range. The protocol: The probe binding HDAC11 assay was performed using a time resolved fluorescence (TRF) assay format. Recombinant N-terminal GST tag full-length human HD AC 11 was expressed and purified from baculovirus in Sf9 insect cells (SignalChem, #H93-30G-1000). […] 4 μL of 2× probe and 2× anti-GST Terbium (Cisbio, #61GSTXLB) was added to assay plates followed by 4 μL of 2×HDAC11.
Sequence of full-length human HDAC11 (Q96DB2 whole entry): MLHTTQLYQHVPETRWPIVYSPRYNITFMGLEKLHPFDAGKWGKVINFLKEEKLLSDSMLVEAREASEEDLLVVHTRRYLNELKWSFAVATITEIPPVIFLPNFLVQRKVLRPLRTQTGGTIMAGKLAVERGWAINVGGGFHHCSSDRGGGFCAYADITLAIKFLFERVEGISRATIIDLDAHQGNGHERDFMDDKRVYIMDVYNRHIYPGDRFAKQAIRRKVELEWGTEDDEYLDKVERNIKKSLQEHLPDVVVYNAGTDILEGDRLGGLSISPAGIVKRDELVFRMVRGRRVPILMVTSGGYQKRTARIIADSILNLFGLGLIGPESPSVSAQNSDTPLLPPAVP
Data from HD AC 11 Assays were reported as percent inhibition (inh) compared with control wells based on the following equation: % inh=1−((FLU−AveLow)/(AveHigh−AveLow)) where FLU=measured time resolved fluorescence. AveLow=average time resolved fluorescence of no enzyme control (n=32). AveHigh=average time resolved fluorescence of DMSO control (n=32). IC50 values were determined by curve fitting of the standard 4 parameter logistic fitting algorithm included in the Activity Base software package: IDBS XE Designer Model205. Data is fitted using the Levenburg Marquardt algorithm.
By pIC50 is commonly meant −log10 of the IC50, conventionally taken in molar units. `CCC(C(=O)N1Cc2cccc(C(=O)NO)c2C1)c1ccc(OC)cc1` (centres unmarked) [Compound 28-3, N-hydroxy-2-(2-(4-methoxyphenyl)butanoyl)isoindoline-4-carboxamide]: the pIC50 was less than 6.00.
With `O=C(NO)c1cccc2c1NC(c1ccc(C(F)(F)F)cc1)C2` (centres unmarked) [Compound 38-1, N-hydroxy-2-(4-(trifluoromethyl)phenyl)indoline-7-carboxamide], the pIC50 was 6.00 to 6.30.
For `O=C(NO)c1cccc2cc(-c3cnc(C(F)(F)F)cn3)[nH]c12` [Compound 37-3, N-hydroxy-2-(5-(trifluoromethyl)pyrazin-2-yl)-1H-indole-7-carboxamide], the pIC50 was more than 6.30.
As to `COc1ccc(CN2Cc3c(C(=O)NO)cccc3C2(C)C)cc1` [Compound 32-1, N-hydroxy-2-(4-methoxybenzyl)-1,1-dimethylisoindoline-4-carboxamide hydrochloride], the pIC50 is less than 6.00.
On to `O=C(NO)c1cccc2[nH]c(-c3cnc(C(F)(F)F)cn3)cc12` [Compound 37-4, N-hydroxy-2-(5-(trifluoromethyl)pyrazin-2-yl)-1H-indole-4-carboxamide], for which the pIC50 is more than 6.30.
As for `CC1(C)c2cccc(C(=O)NO)c2CN1C(=O)Nc1nc2ccccc2o1` [Compound 30-7, N2-(benzo[d]oxazol-2-yl)-N4-hydroxy-1,1-dimethylisoindoline-2,4-dicarboxamide], the pIC50 is less than 6.00.
As for `CC1(C)c2cccc(C(=O)NO)c2CN1C(=O)Nc1cncc(C(F)(F)F)c1` [Compound 30-4, N4-hydroxy-1,1-dimethyl-N2-(5-(trifluoromethyl)pyridin-3-yl)isoindoline-2,4-dicarboxamide], the figure is less than 6.00; as for `CC1(C)c2cccc(C(=O)NO)c2CN1c1nc2ncc(C(F)(F)F)cc2o1` [Compound 26-2, N-hydroxy-1,1-dimethyl-2-(6-(trifluoromethyl)oxazolo[4,5-b]pyridin-2-yl)isoindoline-4-carboxamide], more than 6.30.
On to `O=C(NO)c1cccc2c1CN(c1cccc(C(F)(F)F)n1)C2` [Compound 45-2, N-hydroxy-2-(6-(trifluoromethyl)pyridin-2-yl)isoindoline-4-carboxamide], for which the negative logarithm of the IC50 (pIC50) is less than 6.00.
Then `O=C(NO)c1cccc2c1CN(c1nc3cccnc3o1)C2` [Compound 6-2, N-hydroxy-2-(oxazolo[5,4-b]pyridin-2-yl)isoindoline-4-carboxamide], with less than 6.00; and `O=C(NO)c1cccc2c1CN(c1nc3ncccc3o1)C2` [Compound 5-1, N-hydroxy-2-(oxazolo[4,5-b]pyridin-2-yl)isoindoline-4-carboxamide hydrochloride], with more than 6.30; and `CC1(C)c2cccc(C(=O)NO)c2CN1c1nc2nc(C(F)(F)F)ccc2o1` [Compound 26-1, N-hydroxy-1,1-dimethyl-2-(5-(trifluoromethyl)oxazolo[4,5-b]pyridin-2-yl)isoindoline-4-carboxamide], with more than 6.30.
Turning to `O=C(NO)c1cccc2c1N[C@@H](c1ccc(C(F)(F)F)cc1)C2` [Compound 39-1, (R)—N-hydroxy-2-(4-(trifluoromethyl)phenyl)indoline-7-carboxamide], the negative logarithm of the IC50 (pIC50) was more than 6.30.
Consider `CC1(C)c2cccc(C(=O)NO)c2CN1C(=O)Nc1ccc(C(F)(F)F)cc1` [Compound 29-1, N4-hydroxy-1,1-dimethyl-N2-(4-(trifluoromethyl)phenyl)isoindoline-2,4-dicarboxamide], for which the negative-log IC50 (pIC50) was more than 6.30.
Take `CC1(C)c2cccc(C(=O)NO)c2CN1c1ccc2ccc(C(F)(F)F)cc2n1` [Compound 23-2, N-hydroxy-1,1-dimethyl-2-(7-(trifluoromethyl)quinolin-2-yl)isoindoline-4-carboxamide]: the pIC50 was 6.00 to 6.30.
As to `O=C(NO)c1cccc2[nH]c(-c3ccc(C(F)(F)F)cc3)cc12` [Compound 37-2, N-hydroxy-2-(4-(trifluoromethyl)phenyl)-1H-indole-4-carboxamide], the pIC50 is 6.00 to 6.30.
For the compound `O=C(NO)c1cccc2c1CN(c1nc3ccccc3o1)C2=O` [Compound 36-1, 2-(benzo[d]oxazol-2-yl)-N-hydroxy-1-oxoisoindoline-4-carboxamide], the negative logarithm of the IC50 (pIC50) is less than 6.00.
For the compound `CC1(C)c2cccc(C(=O)NO)c2CN1C(=O)Nc1cc2c(cn1)CCCC2` [Compound 31-1, N4-hydroxy-1,1-dimethyl-N2-(5,6,7,8-tetrahydroisoquinolin-3-yl)isoindoline-2,4-dicarboxamide], the pIC50 was 6.00 to 6.30.
Take `CC1(C)c2cccc(C(=O)NO)c2N[C@@H]1c1cnc(C(F)(F)F)cn1` [Compound 40-4, (S)-N-hydroxy-3,3-dimethyl-2-(5-(trifluoromethyl)pyrazin-2-yl)indoline-7-carboxamide]: the pIC50 was less than 6.00.
As to `O=C(NO)c1cccc2cc(-c3ccc(C(F)(F)F)cc3)[nH]c12` [Compound 37-1, N-hydroxy-2-(4-(trifluoromethyl)phenyl)-1H-indole-7-carboxamide], the pIC50 is 6.00 to 6.30.
Consider `O=C(NO)c1cccc2c1CN(c1nc3cnccc3o1)C2` [Compound 6-1, N-hydroxy-2-(oxazolo[4,5-c]pyridin-2-yl)isoindoline-4-carboxamide hydrochloride], for which the negative logarithm of the IC50 (pIC50) was 6.00 to 6.30.
Consider `Cc1cnc(N2Cc3cccc(C(=O)NO)c3C2)[nH]1` [Compound 7-5, N-hydroxy-2-(5-methyl-1H-imidazol-2-yl)isoindoline-4-carboxamide], for which the negative logarithm of the IC50 (pIC50) was less than 6.00.
Take `O=C(NO)c1cccc2c1CN(c1ccccc1)C2` [Compound 42-1, N-hydroxy-2-phenylisoindoline-4-carboxamide]: the pIC50 is less than 6.00.
Turning to `O=C(NO)c1cccc2c1CN(c1nc3cc(C(F)(F)F)ccc3o1)C2=O` [Compound 36-2, N-hydroxy-1-oxo-2-(5-(trifluoromethyl)benzo[d]oxazol-2-yl)isoindoline-4-carboxamide], the pIC50 is more than 6.30.
Turning to `CC1(C)c2cccc(C(=O)NO)c2CN1c1nc2ccc(C(F)(F)F)cc2o1` [Compound 18-3, N-hydroxy-1,1-dimethyl-2-(6-(trifluoromethyl)benzo[d]oxazol-2-yl)isoindoline-4-carboxamide], the pIC50 was more than 6.30.
On to `CC1(C)c2cccc(C(=O)NO)c2CN1c1nc2ccccc2s1` [Compound 22-1, 2-(benzo[d]thiazol-2-yl)-N-hydroxy-1,1-dimethylisoindoline-4-carboxamide], for which the negative logarithm of the IC50 (pIC50) is more than 6.30.
Take `O=C(NO)c1cccc2c1CN(c1nc3cc(C(F)(F)F)cc(-c4ccccc4)c3[nH]1)C2` [Compound 35-1, N-hydroxy-2-(7-phenyl-5-(trifluoromethyl)-1H-benzo[d]imidazol-2-yl)isoindoline-4-carboxamide]: the pIC50 is 6.00 to 6.30.
In the case of `CC1(C)c2cccc(C(=O)NO)c2N[C@H]1c1cnc(C(F)(F)F)cn1` [Compound 40-3, (R)-N-hydroxy-3,3-dimethyl-2-(5-(trifluoromethyl)pyrazin-2-yl)indoline-7-carboxamide], the pIC50 is more than 6.30.
`CC1(C)c2cccc(C(=O)NO)c2CN1c1nc2c(o1)CCC(C(F)(F)F)C2` (centres unmarked) [Compound 19-1, N-hydroxy-1,1-dimethyl-2-[5-(trifluoromethyl)-4,5,6,7-tetrahydro-1,3-benzoxazol-2-yl]-2,3-dihydro-1H-isoindole-4-carboxamide]: the pIC50 is more than 6.30.
Take `O=C(NO)c1cccc2c1CN(c1nc3cc(C(F)(F)F)c(-c4ccccc4)cc3[nH]1)C2` [Compound 34-1, N-hydroxy-2-(5-phenyl-6-(trifluoromethyl)-1H-benzo[d]imidazol-2-yl)isoindoline-4-carboxamide]: the negative logarithm of the IC50 (pIC50) is more than 6.30.
In the case of `O=C(NO)c1cccc2c1CN(c1nc3c([nH]1)CC(C(F)(F)F)CC3)C2` (centres unmarked) [Compound 1-1, N-hydroxy-2-(5-(trifluoromethyl)-4,5,6,7-tetrahydro-1H-benzo[d]imidazol-2-yl)isoindoline-4-carboxamide], the negative-log IC50 (pIC50) is more than 6.30.
Regarding `CC1(C)c2cccc(C(=O)NO)c2N[C@@H]1c1ccc(C(F)(F)F)cc1` [Compound 40-6, (R)-N-hydroxy-3,3-dimethyl-2-(4-(trifluoromethyl)phenyl)indoline-7-carboxamide], the negative logarithm of the IC50 (pIC50) was less than 6.00.
Regarding `CC1(C)c2cccc(C(=O)NO)c2CN1C(=O)Nc1ccc(C(F)(F)F)cn1` [Compound 30-2, N4-hydroxy-1,1-dimethyl-N2-(5-(trifluoromethyl)pyridin-2-yl)isoindoline-2,4-dicarboxamide], the pIC50 was less than 6.00.
For `CC1(C)c2cccc(C(=O)NO)c2N[C@@H]1c1ccc(C(F)(F)F)cn1` [Compound 40-2, (S)—N-hydroxy-3,3-dimethyl-2-(5-(trifluoromethyl)pyridin-2-yl)indoline-7-carboxamide], the pIC50 was more than 6.30.
For the compound `O=C(NO)c1cccc2c1CN(c1nc3ccncc3[nH]1)C2` [Compound 3-1, N-hydroxy-2-(3H-imidazo[4,5-c]pyridin-2-yl)isoindoline-4-carboxamide], the pIC50 is less than 6.00.
For the compound `CC1(C)c2cccc(C(=O)NO)c2CN1c1ccc2ccccc2n1` [Compound 22-5, N-hydroxy-1,1-dimethyl-2-(quinolin-2-yl)isoindoline-4-carboxamide], the pIC50 was more than 6.30.
As for `CC1(C)c2ccnc(C(=O)NO)c2CN1c1ccc(C(F)(F)F)cn1` [Compound 33-1, N-hydroxy-1,1-dimethyl-2-(5-(trifluoromethyl)pyridin-2-yl)-2,3-dihydro-1H-pyrrolo [3,4-c]pyridine-4-carboxamide], the figure is 6.00 to 6.30; as for `CC1(C)c2cccc(C(=O)NO)c2CN1C(=O)Nc1ccc(C(F)(F)F)nc1` [Compound 30-1, N4-hydroxy-1,1-dimethyl-N2-(6-(trifluoromethyl)pyridin-3-yl)isoindoline-2,4-dicarboxamide], 6.00 to 6.30.

These data come from US11535607B2, “Isoindolines as HDAC inhibitors” (Valo Health, Inc., priority 2018, dated 2022).
